Laboratory results as given in patent US10059713B2 (Takeda Pharmaceutical Company Limited, priority 2014, dated 2018).

target: human GPR43 (Homo sapiens (Human), UniProt O15552); test: Ca-Flux functional assay: determination of agonist/positive allosteric modulator (PAM) activity; type: cell-based; conditions: CHO-K1 Gα16 cells stably expressing human GPR43; compound added with EC20 sodium acetate; intracellular Ca2+ by FLIPR; does not distinguish agonist from PAM
Procedure: Ca-Flux Functional Assay: Determination of Agonist/Positive Allosteric Modulator (PAM) Activity
GPR43 agonist/PAM activity was determined by measuring changes in intracellular calcium levels using a Ca^2+ sensitive fluorescent dye. The changes in fluorescent signal were monitored by FLIPR (manufactured by Molecular Devices). GPR43 mediated increases in intracellular Ca^2+ concentration were readily detected upon activation with sodium acetate. Prior to the assay (24 hours), CHO-K1 Gα16 cells stably expressing human GPR43 were-seeded in cell culture medium in black, clear-bottom 384-well plates (Corning Inc) and grown overnight at 37° C., 5% CO2. On the day of the assay, cell culture media was removed and cells were loaded with Calcium 5 Dye (Molecular Devices) diluted in HBSS containing 25 mM HEPES, 2.5 mM Probenecid, 0.1% BSA for 1 hour at 37° C., 5% CO2. 10 point half log concentration response curves of sodium acetate from 10 mM were conducted prior to the testing of compounds to calculate the sodium acetate concentration that produces 20% of the maximal response (EC20). Test compounds (at 10 point half log concentration response curves from 10 μM) were added in the presence of sodium acetate to achieve a final concentration that produces approximately 20% maximal response as calculated from the previous experiment. The changes in fluorescent signal were monitored by FLIPR upon addition of the compound/EC20 sodium acetate mix. The EC50 values were determined from ten point concentration response curves. Curves were generated using the average of two wells for each data point.
The above assay detects both GPR43 receptor agonists and positive allosteric modulators of the GPR43 receptor, without distinguishing between the two. Activity in either regard is useful in the treatment of conditions associated with GPR43 receptor activity.

Chain of human GPR43 (O15552 whole entry): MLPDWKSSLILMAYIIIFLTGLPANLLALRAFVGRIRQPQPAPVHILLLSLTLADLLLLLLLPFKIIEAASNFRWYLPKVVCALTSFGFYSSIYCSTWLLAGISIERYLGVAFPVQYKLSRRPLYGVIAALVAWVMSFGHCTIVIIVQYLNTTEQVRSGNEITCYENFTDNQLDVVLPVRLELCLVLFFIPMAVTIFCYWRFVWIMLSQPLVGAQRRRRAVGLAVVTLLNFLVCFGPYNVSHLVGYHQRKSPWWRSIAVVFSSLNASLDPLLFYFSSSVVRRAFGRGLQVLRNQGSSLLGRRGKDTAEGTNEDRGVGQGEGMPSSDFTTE

| Compound | EC50 [nM] |
| --- | --- |
| Nc1[nH]c2cc(C3=CCCCC3)cnc2c1S(=O)(=O)c1ccccc1 [Example 25, 3-(benzenesulfonyl)-6-(cyclohex-1-en-1-yl)-1H-pyrrolo[3,2-b]pyridin-2-amine] | 288 |
| CC1CN(c2ncnc3c(S(=O)(=O)c4ccccc4)c(N)[nH]c23)CC(C)S1 (centres unmarked) [Example 197, 7-(benzenesulfonyl)-4-(2,6-dimethylthiomorpholin-4-yl)-5H-pyrrolo[3,2-d]pyrimidin-6-amine] | 4 |
| Nc1[nH]c2c(N3CCOC(C(F)(F)F)C3)ncnc2c1S(=O)(=O)c1ccccc1F (centres unmarked) [Example 302, 7-(2-fluorobenzenesulfonyl)-4-[2-(trifluoromethyl)morpholin-4-yl]-5H-pyrrolo[3,2-d]pyrimidin-6-amine] | 2 |
| Cc1nc(OC2CCC2)c2[nH]c(N)c(S(=O)(=O)c3ccccc3F)c2n1 [Example 260, 4-cyclobutoxy-7-(2-fluorobenzenesulfonyl)-2-methyl-5H-pyrrolo[3,2-d]pyrimidin-6-amine] | 10 |
| Cc1nc(N2CCC(F)(F)CC2)c2[nH]c(N)c(S(=O)(=O)c3ccccc3F)c2n1 [Example 186, 4-(4,4-difluoropiperidin-1-yl)-7-(2-fluorobenzenesulfonyl)-2-methyl-5H-pyrrolo[3,2-d]pyrimidin-6-amine] | 14 |
| CC1CN(c2nc(C(F)(F)F)nc3c(S(=O)(=O)c4ccccc4F)c(N)[nH]c23)CCO1 (centres unmarked) [Example 268, 7-(2-fluorobenzenesulfonyl)-4-(2-methylmorpholin-4-yl)-2-(trifluoromethyl)-5H-pyrrolo[3,2-d]pyrimidin-6-amine] | 17 |
| C[C@H]1CN(c2ncnc3c(S(=O)(=O)c4ccccc4)c(N)[nH]c23)CCO1 [Example 86, 7-(benzenesulfonyl)-4-[(2S)-2-methylmorpholin-4-yl]-5H-pyrrolo[3,2-d]pyrimidin-6-amine] | 19 |
| CCN(CC1CCOCC1)c1ncnc2c(S(=O)(=O)c3ccccc3)c(N)[nH]c12 [Example 188, 7-(benzenesulfonyl)-4-N-ethyl-4-N-(oxan-4-ylmethyl)-5H-pyrrolo[3,2-d]pyrimidine-4,6-diamine] | 2660 |
| Nc1[nH]c2c(N3CCOC(C(F)(F)F)C3)ncnc2c1S(=O)(=O)c1ccccc1 (centres unmarked) [Example 141, 7-(benzenesulfonyl)-4-[2-(trifluoromethyl)morpholin-4-yl]-5H-pyrrolo[3,2-d]pyrimidin-6-amine] | 12 |
| Cc1cc(C)n(-c2ncnc3c(S(=O)(=O)c4ccccc4)c(N)[nH]c23)n1 [Example 140, 7-(benzenesulfonyl)-4-(3,5-dimethyl-1H-pyrazol-1-yl)-5H-pyrrolo[3,2-d]pyrimidin-6-amine] | 72 |
| COc1ccccc1CN(C)c1ncnc2c(S(=O)(=O)c3ccccc3)c(N)[nH]c12 [Example 92, 7-(benzenesulfonyl)-4-N-[(2-methoxyphenyl)methyl]-4-N-methyl-5H-pyrrolo[3,2-d]pyrimidine-4,6-diamine] | 209 |
| Nc1[nH]c2c(C3CCCCC3)ncnc2c1S(=O)(=O)c1cccc(F)c1 [Example 39, 4-cyclohexyl-7-[(3-fluorobenzene)sulfonyl]-5H-pyrrolo[3,2-d]pyrimidin-6-amine] | 80 |
| Cc1nc(N2CCOC(C)C2)c2[nH]c(N)c(S(=O)(=O)c3c(F)cccc3F)c2n1 (centres unmarked) [Example 263, 7-(2,6-difluorobenzenesulfonyl)-2-methyl-4-(2-methylmorpholin-4-yl)-5H-pyrrolo[3,2-d]pyrimidin-6-amine] | 6 |
| COc1ccc(S(=O)(=O)c2c(N)[nH]c3c(N4CCC5(CC4)CC5)ncnc23)cc1 [Example 72, 4-{6-azaspiro[2.5]octan-6-yl}-7-(4-methoxybenzenesulfonyl)-5H-pyrrolo[3,2-d]pyrimidin-6-amine] | 26 |
| Nc1[nH]c2c(OCC3CCCCO3)ncnc2c1S(=O)(=O)c1ccccc1 (centres unmarked) [Example 156, 7-(benzenesulfonyl)-4-(oxan-2-ylmethoxy)-5H-pyrrolo[3,2-d]pyrimidin-6-amine] | 3000 |
| CC1CN(c2ncnc3c(S(=O)(=O)c4ccccc4)c(N)[nH]c23)CCS1 (centres unmarked) [Example 195, 7-(benzenesulfonyl)-4-(2-methylthiomorpholin-4-yl)-5H-pyrrolo[3,2-d]pyrimidin-6-amine] | 8 |
| Cc1nc(N2CCO[C@H](C(F)(F)F)C2)c2[nH]c(N)c(S(=O)(=O)c3cc(F)ccc3F)c2n1 [Example 292] | 3 |
| Nc1[nH]c2c(C3CCCCC3)ncnc2c1S(=O)(=O)c1ccc(F)cc1 [Example 27, 4-cyclohexyl-7-[(4-fluorobenzene)sulfonyl]-5H-pyrrolo[3,2-d]pyrimidin-6-amine] | 89 |

| Compound | EC50 [nM] |
| --- | --- |
| CC1(C)CCN(c2ncnc3c(S(=O)(=O)c4ccccc4)c(N)[nH]c23)C1 [Example 47] | 358 |
| Cc1nc(C2=CCCCC2)c2[nH]c(N)c(S(=O)(=O)c3ccccc3)c2n1 [Example 19, 7-(benzenesulfonyl)-4-(cyclohex-1-en-1-yl)-2-methyl-5H-pyrrolo[3,2-d]pyrimidin-6-amine] | 28 |
| COc1ccccc1S(=O)(=O)c1c(N)[nH]c2c(N3CCOC(C)C3)ncnc12 (centres unmarked) [Example 152, 7-(2-methoxybenzenesulfonyl)-4-(2-methylmorpholin-4-yl)-5H-pyrrolo[3,2-d]pyrimidin-6-amine] | 2150 |
| Nc1[nH]c2c(C3=CCCCC3)ncnc2c1S(=O)(=O)c1cccc(F)c1 [Example 37, 4-(cyclohex-1-en-1-yl)-7-[(3-fluorobenzene)sulfonyl]-5H-pyrrolo[3,2-d]pyrimidin-6-amine] | 80 |
| Nc1[nH]c2c(N3CCO[C@H](c4ccccc4)C3)ncnc2c1S(=O)(=O)c1ccccc1 [Example 133, 7-(benzenesulfonyl)-4-[(2R)-2-phenylmorpholin-4-yl]-5H-pyrrolo[3,2-d]pyrimidin-6-amine] | 24 |
| CCC1CN(c2ncnc3c(S(=O)(=O)c4ccccc4)c(N)[nH]c23)CCS1 (centres unmarked) [Example 196, 7-(benzenesulfonyl)-4-(2-ethylthiomorpholin-4-yl)-5H-pyrrolo[3,2-d]pyrimidin-6-amine] | 10 |
| COc1ccc(S(=O)(=O)c2c(N)[nH]c3c(C4=CCCCC4)ncnc23)cn1 [Example 43, 4-(cyclohex-1-en-1-yl)-7-(6-methoxypyridine-3-sulfonyl)-5H-pyrrolo[3,2-d]pyrimidin-6-amine] | 78 |
| Nc1[nH]c2c(N3CCCC(n4cccn4)C3)ncnc2c1S(=O)(=O)c1ccccc1 (centres unmarked) [Example 114, 7-(benzenesulfonyl)-4-[3-(1H-pyrazol-1-yl)piperidin-1-yl]-5H-pyrrolo[3,2-d]pyrimidin-6-amine] | 1110 |
| CCN(C)c1ncnc2c(S(=O)(=O)c3ccccc3)c(N)[nH]c12 [Example 97, 7-(benzenesulfonyl)-4-N-ethyl-4-N-methyl-5H-pyrrolo[3,2-d]pyrimidine-4,6-diamine] | 447 |
| CC(C)CC1CN(c2ncnc3c(S(=O)(=O)c4ccccc4)c(N)[nH]c23)CCO1 (centres unmarked) [Example 101, 7-(benzenesulfonyl)-4-[2-(2-methylpropyl)morpholin-4-yl]-5H-pyrrolo[3,2-d]pyrimidin-6-amine] | 31 |
| COc1ccc(S(=O)(=O)c2c(N)[nH]c3c(C4CCCC4)ncnc23)cc1 [Example 73, 4-cyclopentyl-7-(4-methoxybenzenesulfonyl)-5H-pyrrolo[3,2-d]pyrimidin-6-amine] | 118 |
| Cc1nc(N2CCOC(C)C2)c2[nH]c(N)c(S(=O)(=O)c3cccc(F)c3)c2n1 (centres unmarked) [Example 180, 7-(3-fluorobenzenesulfonyl)-2-methyl-4-(2-methylmorpholin-4-yl)-5H-pyrrolo[3,2-d]pyrimidin-6-amine] | 43 |
| Cc1nc(N2C[C@@H](C)O[C@H](C)C2)c2[nH]c(N)c(S(=O)(=O)c3ccccc3F)c2n1 [Example 203, 4-[(2R,6R)-2,6-dimethylmorpholin-4-yl]-7-(2-fluorobenzenesulfonyl)-2-methyl-5H-pyrrolo[3,2-d]pyrimidin-6-amine] | 11 |
| Cc1nc(N2CCO[C@@H](C(F)(F)F)C2)c2[nH]c(N)c(S(=O)(=O)c3cccc(F)c3F)c2n1 [Example 286, 7-(2,3-difluorobenzenesulfonyl)-2-methyl-4-[(2R)-2-(trifluoromethyl)morpholin-4-yl]-5H-pyrrolo[3,2-d]pyrimidin-6-amine] | 3 |
| Nc1[nH]c2c(C3CCCCC3)ncnc2c1S(=O)(=O)c1ccc(OC(F)F)cc1 [Example 36, 4-cyclohexyl-7-{[4-(difluoromethoxy)benzene]sulfonyl}-5H-pyrrolo[3,2-d]pyrimidin-6-amine] | 87 |
| C[C@@H](Oc1ncnc2c(S(=O)(=O)c3ccccc3)c(N)[nH]c12)c1ccccn1 [Example 162, 7-(benzenesulfonyl)-4-[(1R)-1-(pyridin-2-yl)ethoxy]-5H-pyrrolo[3,2-d]pyrimidin-6-amine] | 141 |
| Nc1[nH]c2c(C3=CCCCC3)ncnc2c1S(=O)(=O)C1CCOC1 (centres unmarked) [Example 78, 4-(cyclohex-1-en-1-yl)-7-(oxolane-3-sulfonyl)-5H-pyrrolo[3,2-d]pyrimidin-6-amine] | 2340 |
